Laboratory results reported in ChEMBL document CHEMBL1154146, “A 2-substituted prodiginine, 2-(p-hydroxybenzyl)prodigiosin, from Pseudoalteromonas rubra” (J Nat Prod, 2008).
The source made the active and inactive calls. The calls are words filed in the database; no cut-off is given here.

How the values were obtained:
[1] = biological target: T1, DNA topoisomerase 1 (Homo sapiens) (UniProt P11387); experiment: Inhibition of human topoisomerase 1
T1 sequence (whole entry): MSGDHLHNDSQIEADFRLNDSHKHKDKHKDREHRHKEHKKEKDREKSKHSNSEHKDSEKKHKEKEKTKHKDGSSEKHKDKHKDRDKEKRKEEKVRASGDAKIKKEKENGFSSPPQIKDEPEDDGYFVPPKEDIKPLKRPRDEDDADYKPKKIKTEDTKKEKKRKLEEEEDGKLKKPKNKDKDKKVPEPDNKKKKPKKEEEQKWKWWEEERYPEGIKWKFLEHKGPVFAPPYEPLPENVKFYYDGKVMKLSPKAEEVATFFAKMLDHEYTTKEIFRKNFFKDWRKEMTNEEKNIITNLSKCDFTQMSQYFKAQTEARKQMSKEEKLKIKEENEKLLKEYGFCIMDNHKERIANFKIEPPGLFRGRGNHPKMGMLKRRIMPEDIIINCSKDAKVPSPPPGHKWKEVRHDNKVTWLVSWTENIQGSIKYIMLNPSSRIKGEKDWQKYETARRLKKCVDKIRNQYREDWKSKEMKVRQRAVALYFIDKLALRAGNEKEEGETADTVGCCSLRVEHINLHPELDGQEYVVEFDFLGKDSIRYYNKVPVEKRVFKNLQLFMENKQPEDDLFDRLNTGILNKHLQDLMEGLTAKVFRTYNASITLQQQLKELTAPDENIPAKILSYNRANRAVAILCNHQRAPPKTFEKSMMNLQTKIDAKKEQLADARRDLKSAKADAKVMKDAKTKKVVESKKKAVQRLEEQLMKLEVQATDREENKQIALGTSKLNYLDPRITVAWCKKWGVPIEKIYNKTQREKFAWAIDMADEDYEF

[2] = system: SK-OV-3; experiment: Cytotoxicity against human SKOV3 cells after 48 hrs by SRB assay; assay type: functional, cell-based; details: SK-OV-3, 48 h

Structure (SMILES) | inhibition [1] | IC50 [2] [nM]
CCCCCC1=C/C(=C/c2[nH]c(-c3ccc(Cc4ccc(O)cc4)[nH]3)cc2OC)N=C1C | Active | 1300
CCCCCC1=C/C(=C/c2[nH]c(-c3ccc[nH]3)cc2OC)N=C1C [PRODIGIOSIN] | Active | 1300
